# Results as given in patent US11214556B1, “Method of treating colorectal cancer” (King Abdulaziz University, priority 2019, dated 2022).
# System: baby hamster kidney (BHK) cell lines
# Assay: Cytotoxicity against normal baby hamster kidney cells
# Format: cell-based
# Conditions: 72 h
# Protocol: FIG. 3B is a graph illustrating the cytotoxic effect of 4112 against human colon adenocarcinoma cancer cells (HCT-116, Caco-2 and HT-29) vs. normal baby hamster kidney cells (BHK). All cells were exposed to different concentrations of 4112 for 72 h. The cell viability concentration curves were plotted, and the IC50 were determined. *denotes significance at P<0.001;
# Based on the favorable pharmacologic and physicochemical properties of MOS-1512, it was selected as a new lead for the second subset of compounds (MOS-1812 to MOS-5112). The compounds in this series contained variable groups at R^1 and R^2 that were all tested against the three cancer cell lines (HCT-116, Caco-2 and HT-29). […]
# The sulforhodamine B (SRB) assays were performed according to Skehan, P.; Storeng, R.; Scudiero, D.; Monks, A.; McMahon, J.; Vistica, D.; Warren, J. T.; Bokesch, H.; Kenney, S.; Boyd, M. R., New colorimetric cytotoxicity assay for anticancer-drug screening. […] Briefly, exponentially growing cells were trypsinized, counted and seeded at the appropriate densities (5000 cells/100 μL/well) into 96-well microtiter plates. […] The protein-bound dye was dissolved in 10 mM Tris base solution for (optical density) OD determination at 510 nm using a SpectraMax plus Microplate Reader (Molecular Devices, CA). […]
structure (smiles),measurement,value
"CCCNC(=O)/C(=C/c1c[nH]c2ccccc12)NC(=O)/C=C/c1cccs1 [Compound 4112, (Z)-3-(1H-indol-3-yl)-N-propyl-2-[(E)-3-(thien-2-yl)acrylamidolacry]amide]",IC50,77.6 ± 6.2 µM
